{
  "source": "patent US9113629B2",
  "about": "“4-amino-6-(4-substituted-phenyl)-picolinates and 6-amino-2-(4-substituted-phenyl)-pyrimidine-4-carboxylates and their use as herbicides” (DOW AGROSCIENCES LLC, priority 2013, dated 2015)",
  "key": {"[1]": {"tested_on": "Key Broadleaf Weed and Crop Species", "assay": "Post-emergent Test II herbicidal activity (Table 5)", "type": "in vivo", "details": "post-emergence, 336 h, post-emergent, 14 days after application; for pest or weed control at 70 g/ha: application rate 70 g ai/ha; for pest or weed control at 140 g/ha: application rate 140 g ai/ha", "summary_of_the_method": "(§1)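 Spray rates: a highest rate plus ½×, ¼×, ⅛×, 1/16×, all delivered at 187 L/ha to plants at the first–second true leaf stage. Readout is a visual percent injury score at 14 d, where 100 means complete kill.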"}, "[2]": {"tested_on": "Key Grass and Sedge Weeds as well as Grass Crops", "assay": "Post-emergent Test II herbicidal activity (Table 6)", "type": "in vivo", "details": "post-emergence, 336 h; for pest or weed control at 70 g/ha: application rate 70 g ai/ha; for pest or weed control at 140 g/ha: application rate 140 g ai/ha", "summary_of_the_method": "as §1"}, "[3]": {"details": "ABUTH: velvetleaf (Abutilon theophrasti), read-out: Visual Growth Reduction (%) 14 Days After Application, ABUTH"}, "[4]": {"details": "AMARE: redroot pigweed (Amaranthus retroflexus), read-out: Visual Growth Reduction (%) 14 Days After Application, AMARE"}, "[5]": {"details": "BRSNN: oilseed-rape, canola (Brassica napus), read-out: Visual Growth Reduction (%) 14 Days After Application, BRSNN"}, "[6]": {"details": "CHEAL: lambsquarters (Chenopodium album), read-out: Visual Growth Reduction (%) 14 Days After Application, CHEAL"}, "[7]": {"details": "EPHHL: wild poinsettia (Euphorbia heterophylla), read-out: Visual Growth Reduction (%) 14 Days After Application, EPHHL"}, "[8]": {"details": "HELAN: sunflower (Helianthus annuus), read-out: Visual Growth Reduction (%) 14 Days After Application, HELAN"}, "[9]": {"details": "VIOTR: wild pansy (Viola tricolor), read-out: Visual Growth Reduction (%) 14 Days After Application, VIOTR"}, "[10]": {"details": "CYPES: yellow nutsedge (Cyperus esculentus), read-out: Visual Growth Reduction (%) 14 Days After Application, CYPES"}, "[11]": {"details": "DIGSA: crabgrass (Digitaria sanguinalis), read-out: Visual Growth Reduction (%) 14 Days After Application, DIGSA"}, "[12]": {"details": "ECHCG: barnyardgrass (Echinochloa crus-galli), read-out: Visual Growth Reduction (%) 14 Days After Application, ECHCG"}, "[13]": {"details": "ORYSA: rice (Oryza sativa), read-out: Visual Growth Reduction (%) 14 Days After Application, ORYSA"}, "[14]": {"details": "SETFA: giant foxtail (Setaria faberi), read-out: Visual Growth Reduction (%) 14 Days After Application, SETFA"}, "[15]": {"details": "SORVU: grain sorghum (Sorghum vulgare), read-out: Visual Growth Reduction (%) 14 Days After Application, SORVU"}, "[16]": {"details": "TRZSS (wheat, Triticum aestivum), read-out: Visual Growth Reduction (%) 14 Days After Application, TRZSS"}, "[17]": {"details": "ZEAMX: maize, corn (Zea mays), read-out: Visual Growth Reduction (%) 14 Days After Application, ZEAMX"}},
  "note": "Like-named read-outs stand apart in the source and are kept apart here.",
  "data": [
    {"smiles": "Nc1c(F)c(-c2cc(F)c(OC(F)F)cc2F)nc(C(=O)O)c1Cl", "note": "[Compound 195]", "values": [
      {"measurement": "melting point", "value": "162 to 165", "unit": "°C"},
      {"measurement": "pest or weed control at 70 g/ha", "setting": "[1]; [3]", "value": "0 to 29", "unit": "%"},
      {"measurement": "pest or weed control at 140 g/ha", "setting": "[1]; [3]", "value": "0 to 29", "unit": "%"},
      {"measurement": "pest or weed control at 70 g/ha", "setting": "[1]; [4]", "value": "0 to 29", "unit": "%"},
      {"measurement": "pest or weed control at 140 g/ha", "setting": "[1]; [4]", "value": "45 to 59", "unit": "%"},
      {"measurement": "pest or weed control at 70 g/ha", "setting": "[1]; [5]", "value": "45 to 59", "unit": "%"},
      {"measurement": "pest or weed control at 140 g/ha", "setting": "[1]; [5]", "value": "60 to 74", "unit": "%"},
      {"measurement": "pest or weed control at 70 g/ha", "setting": "[1]; [6]", "value": "45 to 59", "unit": "%"},
      {"measurement": "pest or weed control at 140 g/ha", "setting": "[1]; [6]", "value": "75 to 84", "unit": "%"},
      {"measurement": "pest or weed control at 70 g/ha", "setting": "[1]; [7]", "value": "30 to 44", "unit": "%"},
      {"measurement": "pest or weed control at 140 g/ha", "setting": "[1]; [7]", "value": "30 to 44", "unit": "%"},
      {"measurement": "pest or weed control at 70 g/ha", "setting": "[1]; [8]", "value": "60 to 74", "unit": "%"},
      {"measurement": "pest or weed control at 140 g/ha", "setting": "[1]; [8]", "value": "85 to 94", "unit": "%"},
      {"measurement": "pest or weed control at 70 g/ha", "setting": "[1]; [9]", "value": "0 to 29", "unit": "%"},
      {"measurement": "pest or weed control at 140 g/ha", "setting": "[1]; [9]", "value": "0 to 29", "unit": "%"},
      {"measurement": "pest or weed control at 70 g/ha", "setting": "[2]; [10]", "value": "0 to 29", "unit": "%"},
      {"measurement": "pest or weed control at 140 g/ha", "setting": "[2]; [10]", "value": "0 to 29", "unit": "%"},
      {"measurement": "pest or weed control at 70 g/ha", "setting": "[2]; [11]", "value": "0 to 29", "unit": "%"},
      {"measurement": "pest or weed control at 140 g/ha", "setting": "[2]; [11]", "value": "0 to 29", "unit": "%"},
      {"measurement": "pest or weed control at 70 g/ha", "setting": "[2]; [12]", "value": "0 to 29", "unit": "%"},
      {"measurement": "pest or weed control at 140 g/ha", "setting": "[2]; [12]", "value": "0 to 29", "unit": "%"},
      {"measurement": "pest or weed control at 70 g/ha", "setting": "[2]; [13]", "value": "0 to 29", "unit": "%"},
      {"measurement": "pest or weed control at 140 g/ha", "setting": "[2]; [13]", "value": "0 to 29", "unit": "%"},
      {"measurement": "pest or weed control at 70 g/ha", "setting": "[2]; [14]", "value": "0 to 29", "unit": "%"},
      {"measurement": "pest or weed control at 140 g/ha", "setting": "[2]; [14]", "value": "0 to 29", "unit": "%"},
      {"measurement": "pest or weed control at 70 g/ha", "setting": "[2]; [15]", "value": "0 to 29", "unit": "%"},
      {"measurement": "pest or weed control at 140 g/ha", "setting": "[2]; [15]", "value": "0 to 29", "unit": "%"},
      {"measurement": "pest or weed control at 70 g/ha", "setting": "[2]; [16]", "value": "0 to 29", "unit": "%"},
      {"measurement": "pest or weed control at 140 g/ha", "setting": "[2]; [16]", "value": "0 to 29", "unit": "%"},
      {"measurement": "pest or weed control at 70 g/ha", "setting": "[2]; [17]", "value": "0 to 29", "unit": "%"},
      {"measurement": "pest or weed control at 140 g/ha", "setting": "[2]; [17]", "value": "0 to 29", "unit": "%"}
    ]}
  ]
}
